Laboratory results reported in patent US12049486B2, “PAC1 receptor agonists (MAXCAPs) and uses thereof” (priority 2017, dated 2024).
Where no end group is shown, it is not given here.

Test: Hepatic fat / liver cirrhosis, NASH/NAFLD by H&E staining in DIO WT mice
Format: in vivo
Settings: versus vehicle
Text: We have shown that these novel MAXCAP compounds, that are PAC1 specific agonists, can potentially treat Nonalcoholic steatohepatitis (NASH), non-alcoholic […] (NAFLD) and liver fibrosis. We injected these MAXCAP compounds in DIO WT mice and measured hepatic fat in the liver (see, e.g., FIG. 5).

Pituitary Adenylate Cyclase Activating Polypeptide (HSDGIFTDSYSRYRKQMAVKKYLAAVLGKRYKQRVKNK; ends and bridges not checked; listed as Homo sapiens) [PACAP, native peptide]
liver cirrhosis and NASH/NAFLD: significant reduction in liver cirrhosis and NASH/NAFLD
